Data from PMC12851022, “Targeting the Spliceosomal Protein USP39 Through Allosteric Ligands and PROTAC‐Induced Degradation” (Angewandte Chemie (International Ed. in English), 2025).

Columns and labels:
[1] = target: T1, USP39 / VHL_m ternary complex (Homo sapiens, UniProt P40337+Q53GS9, DEL91-121); assay: FRET assay of ternary complex formation in cells, VHL_m; type: cell-based; conditions: in the presence of MLN4924
T1 construct: expressed in transfected cells; host or cells: HEK293T
Description: (§1) Figure 4 Effective and selective degradation of USP39 in cells by USP39‐PROTACs. a) Optimization of cellular degradation assay in HeLa cells transiently overexpressing USP39‑OFP (HeLa‐USP39‐OFP). […] GAPDH was used as a loading control. g) Proteasome dependence of USP39 degradation. HeLa‐WT cells were co‐treated with MG132 (0.25 µM) or DMSO control and USP39_PROTAC_V1 for 24 h ST. h) Representative immunofluorescence images of HeLa‐USP39_OFP cells treated with DMSO (NT), USP39_PROTAC_V1 (10 nM, 24 h), or USP39_PROTAC_V1 + MLN4924 (1 µM), stained for USP39 (red) and nuclei (blue). i) Quantification of USP39 degradation by fluorescence microscopy, showing DC50 values of 13 nM without MLN4924 (orange) and 204 nM with MLN4924 (blue) (MLN4924 = 5 uM). j) VHL‐dependence of PROTAC‐induced degradation. Schematic of PROTAC recruitment to VHL via hydroxyl‐proline interactions (His115, Ser111). Western blot comparing USP39 levels in VHL WT and VHL KO HeLa cells treated with USP39_PROTAC_V1. k) Fluorescence assay in HEK293T cells co‐expressing USP39‑OFP and either VHL_WT‑EGFP or VHL_m (Δ91–121). […] Comparison of untreated (NT) and USP39_PROTAC_V1–treated (10 nM, 24 h) samples. Percent spliced/unspliced (S/U) ratios are shown, reflecting USP39‐deficiency–associated splicing defects. Data represent at least four independent biological replicates. […]

[2] = target: T2, USP39 (Homo sapiens, UniProt Q53GS9); assay: Western blot of USP39 levels in HeLa-WT cells; type: cell-based; set-up: endogenous in cells; host or cells: HeLa-WT; conditions: MG132 0.25 µM, 24 h ST
T2 sequence (Q53GS9 1-565): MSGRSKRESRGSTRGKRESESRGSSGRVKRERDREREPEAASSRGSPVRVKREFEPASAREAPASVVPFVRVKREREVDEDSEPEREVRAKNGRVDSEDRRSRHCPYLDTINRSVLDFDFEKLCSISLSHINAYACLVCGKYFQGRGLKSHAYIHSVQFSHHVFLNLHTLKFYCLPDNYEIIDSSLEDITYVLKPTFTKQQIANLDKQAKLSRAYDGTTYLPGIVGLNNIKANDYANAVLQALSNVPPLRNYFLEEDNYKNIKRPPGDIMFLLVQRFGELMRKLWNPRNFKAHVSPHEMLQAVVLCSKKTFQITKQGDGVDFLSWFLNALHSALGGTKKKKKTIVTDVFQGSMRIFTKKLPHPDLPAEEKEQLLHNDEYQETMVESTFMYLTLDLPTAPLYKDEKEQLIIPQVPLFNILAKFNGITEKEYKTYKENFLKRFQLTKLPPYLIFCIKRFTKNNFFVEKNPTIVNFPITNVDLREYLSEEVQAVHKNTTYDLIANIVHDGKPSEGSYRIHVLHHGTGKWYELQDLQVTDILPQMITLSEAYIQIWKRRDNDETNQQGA
Description: as §1

T1 sequence (P40337 with tags, fused parts or gaps DEL91-121, one chain of several): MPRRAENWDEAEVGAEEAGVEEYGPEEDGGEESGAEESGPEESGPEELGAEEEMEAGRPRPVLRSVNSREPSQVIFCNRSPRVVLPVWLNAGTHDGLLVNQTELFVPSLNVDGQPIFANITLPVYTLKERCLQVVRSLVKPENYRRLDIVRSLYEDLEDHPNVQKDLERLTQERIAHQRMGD

Cc1ncsc1-c1ccc(CNC(=O)C2CC(O)CN2C(=O)C(NC(=O)CCOCCOCCOCCNC(=O)c2csc(Nc3ccc(Cl)cc3)n2)C(C)(C)C)cc1 (centres unmarked) [USP39_PROTAC_V1]
FRET signal of ternary complex formation [1]: minimal signal | USP39 degradation under co-treatment with proteasome inhibitor MG132 [2]: markedly suppressed USP39 degradation
